From US10981932B2, “Macrocyclic indole derivatives” (Bayer Aktiengesellschaft, priority 2016, dated 2021)
Structures can show the parent of a compound that is named as a salt. Where two headings read alike, the source gives them in different places.

Key:
[1] = target: MCL-1 (Homo sapiens, UniProt Q07820); experiment: Protein-protein interaction assay MCL-1/Noxa BH3 peptide (MCL-1 assay), TR-FRET; type: binding; settings: MBP-MCL-1 / Noxa BH3-derived peptide, median
Method in brief: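 TR-FRET, 665/622 nm emission ratio (excitation 330–350 nm), measured MCL-1/Noxa complex formation. 1 nM MBP-MCL-1, 50 mM Tris/HCl pH 7, 0.1% BGG, 2 mM DTT. Incubation 1 h at 22 °C, then overnight at 4 °C. IC50 by 4-parameter regression, normalized to DMSO (0%) and no-MCL-1 (100%) controls.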

[2] = system: SUDHL10; experiment: Anti-proliferative effect (CellTiter-Glo, 72 h), SUDHL10; type: cell-based; settings: SUDHL10 cells, antiproliferation, 72 h incubation, median, read-out: Antiproli SUDHL10 [M] (median)
Method in brief: (§1)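 A time zero plate, read with CellTiter-Glo shortly after seeding, served as baseline; compound-treated plates were incubated 72 h at 37 °C and then read identically by luminescence.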

[3] = system: SUDHL5; experiment: Induction of cytotoxicity (CellTiter-Glo, 5 h), SUDHL5
[4] = system: SUDHL5; experiment: Anti-proliferative effect (CellTiter-Glo, 72 h), SUDHL5; type: cell-based; settings: SUDHL5 cells, antiproliferation, 72 h incubation, median, read-out: Antiproli SUDHL5 [M] (median)
Method in brief: as §1

[5] = system: OPM2; experiment: Anti-proliferative effect (CellTiter-Glo, 72 h), OPM2; type: cell-based; settings: OPM2 cells, median, read-out: IC50 antiproliferation assay OPM2 [M] (median)
Method in brief: as §1

[6] = system: SUDHL10; experiment: Induction of caspase-3/7 activity (Caspase-Glo 3/7), SUDHL10; type: cell-based; settings: caspase-3/7 induction, SUDHL10 cells, 3 h treatment, median
Method in brief: (§2)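 DLBCL cells treated with compounds for 3 h at 37 °C, then caspase-3/7 activity read by Caspase-Glo 3/7 luminescence. Medium-only background subtracted; EC50 fitted with C0 fixed at 1 and top set to the reference compound's maximal induction.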

[7] = system: A2780; experiment: Anti-proliferative effect (CellTiter-Glo, 72 h), A2780; type: cell-based; settings: A2780 cells, median, read-out: IC50 antiproliferation assay A2780 [M] (median)
Method in brief: as §1

[8] = system: SUDHL10; experiment: Induction of cytotoxicity (CellTiter-Glo, 5 h), SUDHL10
[9] = system: SUDHL5; experiment: Induction of caspase-3/7 activity (Caspase-Glo 3/7), SUDHL5; type: cell-based; settings: caspase-3/7 induction, SUDHL5 cells, 3 h treatment, median
Method in brief: as §2

[10] = system: MV-4-11; experiment: Anti-proliferative effect (CellTiter-Glo, 72 h), MV-4-11; type: cell-based; settings: MV-4-11 cells, median, read-out: IC50 antiproliferation assay MV-4-11 [M] (median)
Method in brief: as §1

[11] = read-out: Cytotox SUDHL5 [M] (median), SUDHL5 cells, cytotoxicity induction, CellTiter-Glo, 5 h incubation, median
[12] = Homo sapiens, SU-DHL10, 5 h, read-out: Cytotox SUDHL10 [M] (median), SUDHL10 cells, cytotoxicity induction, CellTiter-Glo, 5 h incubation, median
[13] = Homo sapiens, SU-DHL-5, 5 h, read-out: Cytotox SUDHL5 [M] (median), SUDHL5 cells, cytotoxicity induction, CellTiter-Glo, 5 h incubation, median
[14] = read-out: Cytotox SUDHL10 [M] (median), SUDHL10 cells, cytotoxicity induction, CellTiter-Glo, 5 h incubation, median

MCL-1, sequence (Q07820 whole entry): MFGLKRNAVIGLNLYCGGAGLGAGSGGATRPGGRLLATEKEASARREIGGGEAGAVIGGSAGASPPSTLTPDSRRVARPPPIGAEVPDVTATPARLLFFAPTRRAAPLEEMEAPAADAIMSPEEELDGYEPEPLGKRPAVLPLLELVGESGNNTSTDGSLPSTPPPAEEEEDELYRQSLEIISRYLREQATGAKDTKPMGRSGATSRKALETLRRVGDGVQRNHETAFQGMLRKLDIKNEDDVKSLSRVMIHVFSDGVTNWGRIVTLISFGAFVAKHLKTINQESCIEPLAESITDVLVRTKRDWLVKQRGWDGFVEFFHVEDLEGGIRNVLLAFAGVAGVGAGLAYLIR

Row | SMILES | IC50 [1] | IC50 ([2]; Homo sapiens, SU-DHL10, 72 h) | IC50 [3, 11] | IC50 ([4]; Homo sapiens, SU-DHL-5, 72 h) | IC50 ([5]; Homo sapiens, OPM-2, 72 h) | EC50 ([6]; Homo sapiens, SU-DHL10, 3 h) | IC50 ([7]; Homo sapiens, A2780, 72 h) | IC50 [8, 12] | EC50 ([9]; Homo sapiens, SU-DHL-5, 3 h) | IC50 ([10]; Homo sapiens, MV4-11, 72 h) | IC50 [3, 13] | EC50 [9] | IC50 [2] | IC50 [4] | IC50 [5] | EC50 [6] | IC50 [7] | IC50 [8, 14] | IC50 [10]
1 | COc1ccccc1-c1ncc(OCc2nn(C)c3c2-c2cccc4c(CCCOc5cccc6ccccc56)c(C(=O)O)n(c24)CCCN(C)C3)cn1 (single isomer, unassigned) [Example 1-91, 11-({[2-(2-methoxyphenyl)pyrimidin-5-yl]oxy}methyl)-7,9-dimethyl-1-[3-(naphthalen-1-yloxy)propyl]-4,5,6,7,8,9-hexahydropyrazolo[3′,4′:7,8][1,5]diazecino[9,10,1-hi]indole-2-carboxylic acid-N-ethylethanamine Salt] | 0.0102 µM | 4.3e-06 M | 5.99e-06 M | 2.48e-06 M | 8.37e-06 M | 7.32 µM | 7.55e-06 M | 9.23e-06 M | 6.34 µM | 2.62e-06 M | – | – | – | – | – | – | – | – | –
2 | CC(C)c1c2c(nn1C)CN(C)CCCn1c(C(=O)O)c(CCCOc3cccc4ccccc34)c3cccc-2c31 (single isomer, unassigned; enantiomer 1) [Example 114, 7,10-dimethyl-1-[3-(naphthalen-1-yloxy)propyl]-11-(propan-2-yl)-4,5,6,7,8,10-hexahydropyrazolo[3′,4′:7,8][1,5]diazecino[9,10,1-hi]indole-2-carboxylic acid (enantiomer 1)] | 0.00303 µM | 5.31e-06 M | – | 3.28e-06 M | 1.1e-05 M | 17.7 µM | 7.06e-06 M | 8.59e-06 M | – | 4.54e-06 M | 6.61e-06 M | 8.86 µM | – | – | – | – | – | – | –
3 | Cn1nc(COc2ccc(N3CCOCC3)cc2)c2c1COCC=CCn1c(C(=O)O)c(CCCOc3cccc4ccccc34)c3cccc-2c31 (single isomer, unassigned; enantiomer 2) [Example 120, (−)-(E/Z)-1-methyl-3-{[4-(morpholin-4-yl)phenoxy]methyl}-7-[3-(naphthalen-1-yloxy)propyl]-1,10,13,15-tetrahydropyrazolo[4′,3′:9,10][1,6]oxazacycloundecino[8,7,6-hi]indole-8-carboxylic Acid (Enantiomer 2)] | 0.0272 µM | – | 3.21e-05 M | – | – | – | – | – | – | – | – | 31.4 µM | 1.4e-05 M | 1.08e-05 M | 4.36e-06 M | 18.4 µM | 1.11e-05 M | > 3.3e-05 M | 1.13e-05 M
4 | Cc1c2c(nn1C)CN(C)CCCn1c(C(=O)O)c(CCCOc3cccc4ccccc34)c3cccc-2c31 (single isomer, unassigned; enantiomer 1) [Example 1-34, 7,10,11-trimethyl-1-[3-(naphthalen-1-yloxy)propyl]-4,5,6,7,8,10-hexahydropyrazolo[3′,4′:7,8][1,5]diazecino[9,10,1-hi]indole-2-carboxylic Acid-N-ethylethanamine Salt (Enantiomer 1)] | 0.00671 µM | > 3.3e-05 M | 3.36e-06 M | 1.31e-05 M | 2.69e-05 M | – | > 3.3e-05 M | – | – | – | – | 4.5 µM | – | – | – | 6.15 µM | – | 4.53e-06 M | 8.89e-06 M
5 | Cn1nc(COc2ccc(N3CCN(S(=O)(=O)C4CC4)CC3)cc2)c2c1COCCCCn1c(C(=O)O)c(CCCOc3cccc4ccccc34)c3cccc-2c31 (racemic) [Example 1-11, (rac)-3-({4-[4-(cyclopropylsulfonyl)piperazin-1-yl]phenoxy}methyl)-1-methyl-7-[3-(naphthalen-1-yloxy)propyl]-110,11,12,13,15-hexahydropyrazolo[4′,3′:9,10][1,6]oxazacycloundecino[8,7,6-hi]indole-8-carboxylic Acid] | 0.00175 µM | 9.28e-07 M | – | 7.61e-07 M | 1.51e-06 M | 0.652 µM | 4.31e-06 M | 1.03e-06 M | 0.405 µM | 2.44e-06 M | 8.89e-07 M | – | – | – | – | – | – | – | –
6 | Cc1ccc2c(CCCOc3cccc4ccccc34)c(C(=O)O)n3c2c1-c1c(C)nn(C)c1COCCCC3 (racemic) [Example 027, (rac)-1,3,4-trimethyl-7-[3-(naphthalen-1-yloxy)propyl]-1,10,11,12,13,15-hexahydropyrazolo[4′,3′:9,10][1,6]oxazacycloundecino[8,7,6-hi]indole-8-carboxylic Acid] | 0.00527 µM | 7.34e-06 M | – | 9.27e-06 M | > 3.3e-05 M | 20.4 µM | 2.54e-05 M | 2.59e-05 M | 6.7 µM | 2.98e-05 M | 8.54e-06 M | – | – | – | – | – | – | – | –
7 | CN1CCCn2c(C(=O)O)c(CCCOc3cccc4ccccc34)c3cccc(c32)-c2c(COc3ccc(S(C)(=O)=O)cc3)nn(C)c2C1 (single isomer, unassigned) [Example 1-49, (−)-7,9-dimethyl-11-{[4-(methylsulfonyl)phenoxy]methyl}-1-[3-(naphthalen-1-yloxy)propyl]-4,5,6,7,8,9-hexahydropyrazolo[3′,4′:7,8][1,5]diazecino[9,10,1-hi]indole-2-carboxylic Acid] | 0.0542 µM | 9.58e-06 M | 3.3e-05 M | – | – | – | 2.31e-05 M | 2.5e-05 M | – | 1.21e-05 M | – | 20.4 µM | – | 1.22e-05 M | > 3.3e-05 M | 18.8 µM | – | – | –
8 | CN1CCCn2c(C(=O)O)c(CCCOc3cccc4ccccc34)c3cccc(c32)-c2c(COc3ccc(S(C)(=O)=O)cc3)nn(C)c2C1 (single isomer, unassigned) [Example 1-50] | 0.0167 µM | – | 5.74e-06 M | – | – | – | – | – | – | – | – | 6.14 µM | 9.59e-06 M | 5.52e-06 M | 1.21e-05 M | 6.71 µM | 1.83e-05 M | 1.26e-05 M | 1.05e-05 M
9 | CCS(=O)(=O)N1CCN(c2ccc(N3CCCn4c(C(=O)O)c(CCCOc5cccc6ccccc56)c5cccc(c54)-c4c(C)nn(C)c4C3)cc2)CC1 (single isomer, unassigned; enantiomer 1) [Example 1-109, 7-{4-[4-(Ethylsulfonyl)piperazin-1-yl]phenyl}-9,11-dimethyl-1-(3-(1-naphthyloxy)propyl-4,5,6,7,8,9-hexahydropyrazolo[3′,4′:7,8][1,5]diazecino[9,10,1-hi]indole-2-carboxylic Acid (Enantiomer 1)] | 0.0185 µM | 4.08e-06 M | – | 4.55e-06 M | 8.14e-06 M | 8.86 µM | 8.7e-06 M | 1.48e-05 M | – | 6.94e-06 M | 8.44e-06 M | 7.09 µM | – | – | – | – | – | – | –
10 | CN(C)S(=O)(=O)N1CCN(c2ccc(OCc3nn(C)c4c3-c3cccc5c(CCCOc6cccc7ccccc67)c(C(=O)O)n(c35)CCCCCC4)cc2)CC1 (single isomer, unassigned; enantiomer 1) [Example 1-40, 3-({4-[4-(dimethylsulfamoyl)piperazin-1-yl]phenoxy}methyl)-1-methyl-7-[3-(naphthalen-1-yloxy)propyl]-10,11,12,13,14,15-hexahydro-1H-pyrazolo[4′,3′:4,5]azacycloundecino[3,2,1-hi]indole-8-carboxylic acid-N-ethylethanamine Salt (Enantiomer 1)] | 0.0368 µM | 1.93e-06 M | 1.69e-05 M | 5.8e-06 M | – | – | 3.95e-06 M | – | – | 4.94e-06 M | – | 21.6 µM | – | – | 5.38e-06 M | > 33 µM | – | 2.3e-05 M | –
